Biological target: T1, PDE5A1 (human PDE5 from platelets) (Homo sapiens, UniProt O76074)
T1 construct: from tissue; host or cells: platelets from fresh blood of human donors (10,000 g supernatant of sonified platelets)
Assay: Inhibition of type 5 phosphodiesterase (PDE5) activity, modified SPA test
Format: biochemical
Settings: PDE5-containing human platelet lysate, 0.5 μM cGMP, value classes, read-out: PDE5A1 inhibitory values [measured as −logIC50 (mol/l)] (converted)
Procedure, shortened: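 Enzyme source: human platelet lysate (10,000 g supernatant), with 1 μM motapizone and 10 nM PDE2 inhibitor present. SPA format in 20 mM Tris pH 7.4, 5 mM Mg2+, 0.5 μM cGMP with [3H]cGMP tracer; 5 min preincubation at 37 °C, 15 min reaction, stopped with IBMX-containing beads. IC50 by non-linear regression.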

Row | SMILES | IC50 [nM]
1 | CC(=O)N1CCC(NC(=O)c2c(C)[nH]c3c(-c4c(OCC5CC5)ccc5c4OCO5)ccnc23)CC1 [Example E01, N-(1-Acetylpiperidin-4-yl)-7-[5-(cyclopropylmethoxy)-1,3-benzodioxol-4-yl]-2-methyl-1H-pyrrolo[3,2-b]pyridine-3-carboxamide] | < 1
2 | CC(=O)N[C@H]1CC[C@H](NC(=O)c2c(C)[nH]c3c(-c4cc(F)ccc4OCC4CC4)ccnc23)CC1 [Example E22, N-[trans-4-(Acetylamino)cyclohexyl]-7-[2-(cyclopropylmethoxy)-5-fluorophenyl]-2-methyl-1H-pyrrolo[3,2-b]pyridine-3-carboxamide] | < 1
3 | COc1ccc(-c2ccnc3c(C(=O)NC4CCN(C(C)=O)CC4)c(C)[nH]c23)c(OCC2CC2)c1 [Example E31, N-(1-Acetylpiperidin-4-yl)-7-[2-(cyclopropylmethoxy)-4-methoxyphenyl]-2-methyl-1H-pyrrolo[3,2-b]pyridine-3-carboxamide] | < 1
4 | COCC(=O)N1C[C@@H](O)[C@H](NC(=O)c2c(C)[nH]c3c(-c4cc(OC)ccc4OCC4CC4)ccnc23)C1 (relative stereo) [Example E51, 7-[2-(Cyclopropylmethoxy)-5-methoxyphenyl]-N-[(3R*,4R*)-4-hydroxy-1-(methoxyacetyl)pyrrolidin-3-yl]-2-methyl-1H-pyrrolo[3,2-b]pyridine-3-carboxamide] | 1 to 10
5 | COCC(=O)N[C@H]1CC[C@@H](NC(=O)c2c(C)[nH]c3c(-c4ccc(F)cc4OCC4CC4)ccnc23)CC1 [Example E18, 7-[2-(Cyclopropylmethoxy)-4-fluorophenyl]-N-{cis-4-[(methoxyacetyl)amino]cyclohexyl}-2-methyl-1H-pyrrolo[3,2-b]pyridine-3-carboxamide] | 1 to 10
6 | COCC(=O)N[C@H]1CC[C@@H](NC(=O)c2c(C)[nH]c3c(-c4c(OCC5CC5)ccc5c4OCO5)ccnc23)CC1 [Example E08, 7-[5-(Cyclopropylmethoxy)-1,3-benzodioxol-4-yl]-N-{cis-4-[(methoxyacetyl)amino]cyclohexyl}-2-methyl-1H-pyrrolo[3,2-b]pyridine-3-carboxamide] | < 1
7 | COCC(=O)N[C@H]1CC[C@H](NC(=O)c2c(C)[nH]c3c(-c4ccc(OC)cc4OCC4CC4)ccnc23)CC1 [Example E36, 7-[2-(Cyclopropylmethoxy)-4-methoxyphenyl]-N-{trans-4-[(methoxyacetyl)amino]cyclohexyl}-2-methyl-1H-pyrrolo[3,2-b]pyridine-3-carboxamide] | < 1
8 | COc1ccc(-c2ccnc3c(C(=O)N[C@H]4CC[C@@H](NC(C)=O)CC4)c(C)[nH]c23)c(OCC2CC2)c1 [Example E37, N-[cis-4-(Acetylamino)cyclohexyl]-7-[2-(cyclopropylmethoxy)-4-methoxyphenyl]-2-methyl-1H-pyrrolo[3,2-b]pyridine-3-carboxamide] | < 1

More lines, now with the values ahead:

Row | IC50 [nM] | SMILES
9 | < 1 | Cc1[nH]c2c(-c3c(OCC4CC4)ccc4c3OCO4)ccnc2c1C(=O)NC1CCN(C(=O)[C@H](C)O)CC1 [Example F02, 7-[5-(Cyclopropylmethoxy)-1,3-benzodioxol-4-yl]-N-{1-[(2S)-2-hydroxypropanoyl]piperidin-4-yl}-2-methyl-1H-pyrrolo[3,2-b]pyridine-3-carboxamide]
10 | < 1 | COc1cc(-c2ccnc3c(C(=O)N[C@H]4CC[C@H](NC(C)=O)CC4)c(C)[nH]c23)c(OCC2CC2)cc1F [Example E64, N-[trans-4-(Acetylamino)cyclohexyl]-7-[2-(cyclopropylmethoxy)-4-fluoro-5-methoxyphenyl]-2-methyl-1H-pyrrolo[3,2-b]pyridine-3-carboxamide]
11 | < 1 | COc1cc(OCC2CC2)c(-c2ccnc3c(C(=O)N[C@H]4CC[C@H](NC(=O)[C@H](C)O)CC4)c(C)[nH]c23)cc1F [Example F53, 7-[2-(Cyclopropylmethoxy)-5-fluoro-4-methoxyphenyl]-N-(trans-4-{[(2S)-2-hydroxypropanoyl]amino}cyclohexyl)-2-methyl-1H-pyrrolo[3,2-b]pyridine-3-carboxamide]
12 | < 1 | COc1cc(OCC2CC2)c(-c2ccnc3c(C(=O)N[C@H]4CC[C@H](NC(C)=O)CC4)c(C)[nH]c23)cc1F [Example E79, N-(trans-4-Acetamidocyclohexyl)-7-[2-(cyclopropylmethoxy)-5-fluoro-4-methoxyphenyl]-2-methyl-1H-pyrrolo[3,2-b]pyridine-3-carboxamide]

Test system: anaesthetised male Sprague Dawley rats
Assay: Phenylephrine-induced acute arterial hypertension and SNP-induced blood pressure response (MAP)
Format: in vivo
Settings: 3 mg/kg orally 90 min prior to SNP (30 μg/kg i.v.); continuous i.v. PE-infusion; vs. placebo
Excerpt: Nitric oxide regulates smooth muscle tone by elevation of cGMP via activation of guanylate cyclase and subsequent activation of cyclic GMP-dependent protein kinase. The amplitude and duration of the cGMP signal in smooth muscle is largely regulated by cGMP-specific cyclic nucleotide phosphodiesterase 5 (PDE5). […] The aim of the study was to evaluate the effects of the selective PDE5 inhibitors described in this present subject matter on phenylephrine-induced acute arterial hypertension and sodium-nitroprusside (SNP) induced blood pressure response in anaesthetised male Sprague Dawley rats.
The test compound (suspended in a 4% w/v aqueous methylcellulose solution 3 mg/kg) or placebo (i.e. 4% aqueous methylcellulose solution) is administered orally to conscious Sprague Dawley rats 90 min prior to SNP administration. 40 min later, rats are anaesthetised by intramuscular administration of 80 mg/kg ketamine-HCl+4 mg/kg xylazin-HCl and ventilated with ˜1.5% isoflurane in a mixture of ambient air and 40% oxygen. Catheters for i.v. PE- and SNP-administration and recording of mean arterial blood pressure (MAP) are inserted. […] To assess the effect of test compounds (PDE5 inhibitory activity) in comparison to placebo, MAP response is analysed. […]

Row | SMILES | efficacy (% change vs. control), corr. AUCMAP 0-180 s following SNP-administration [%]
13 | CC(=O)N1CCC(NC(=O)c2c(C)[nH]c3c(-c4c(OCC5CC5)ccc5c4OCO5)ccnc23)CC1 [Example E01, N-(1-Acetylpiperidin-4-yl)-7-[5-(cyclopropylmethoxy)-1,3-benzodioxol-4-yl]-2-methyl-1H-pyrrolo[3,2-b]pyridine-3-carboxamide] | ~−27
14 | Cc1[nH]c2c(-c3c(OCC4CC4)ccc4c3OCO4)ccnc2c1C(=O)NC1CCN(C(=O)[C@H](C)O)CC1 [Example F02, 7-[5-(Cyclopropylmethoxy)-1,3-benzodioxol-4-yl]-N-{1-[(2S)-2-hydroxypropanoyl]piperidin-4-yl}-2-methyl-1H-pyrrolo[3,2-b]pyridine-3-carboxamide] | ~−27
